Tests used:
[1] = Cytotoxicity against human UO31 cells by sulforhodamine B assay; type: functional
A498 = experiment: Cytotoxicity against human A498 cells by sulforhodamine B assay; type: functional
[2] = Cytotoxicity against human NCI-ADR-RES cells by sulforhodamine B assay; type: functional
SW-620 = experiment: Cytotoxicity against human SW620 cells by sulforhodamine B assay; type: functional
KM12 = experiment: Cytotoxicity against human KM12 cells by sulforhodamine B assay; type: functional
HCT-116 [3] = experiment: Cytotoxicity against human HCT116 cells by sulforhodamine B assay; type: functional
NCI-H460 = experiment: Cytotoxicity against human NCI-H460 cells by sulforhodamine B assay; type: functional
PC-3 = experiment: Growth inhibition of human PC3 cells assessed as cell growth at 10 uM by sulforhodamine B assay relative to control; values are per cent of control
T47D = experiment: Growth inhibition of human T47D cells assessed as cell growth at 10 uM by sulforhodamine B assay relative to control; values are per cent of control
[4] = Growth inhibition of human UO31 cells assessed as cell growth at 10 uM by sulforhodamine B assay relative to control; values are per cent of control; conditions: UO-31
ACHN = experiment: Growth inhibition of human ACHN cells assessed as cell growth at 10 uM by sulforhodamine B assay relative to control; values are per cent of control
U-251 = experiment: Growth inhibition of human U251 cells assessed as cell growth at 10 uM by sulforhodamine B assay relative to control; values are per cent of control
SN12C = experiment: Growth inhibition of human SN12C cells assessed as cell growth at 10 uM by sulforhodamine B assay relative to control; values are per cent of control
786-0 = experiment: Growth inhibition of human 786-0 cells assessed as cell growth at 10 uM by sulforhodamine B assay relative to control; values are per cent of control
SK-OV-3 = experiment: Growth inhibition of human SKOV3 cells assessed as cell growth at 10 uM by sulforhodamine B assay relative to control; values are per cent of control
SNB-75 = experiment: Growth inhibition of human SNB75 cells assessed as cell growth at 10 uM by sulforhodamine B assay relative to control; values are per cent of control
[5] = Growth inhibition of human SF539 cells assessed as cell growth at 10 uM by sulforhodamine B assay relative to control; values are per cent of control; conditions: SF-539
SF-295 = experiment: Growth inhibition of human SF295 cells assessed as cell growth at 10 uM by sulforhodamine B assay relative to control; values are per cent of control
SF-268 = experiment: Growth inhibition of human SF268 cells assessed as cell growth at 10 uM by sulforhodamine B assay relative to control; values are per cent of control
HT-29 = experiment: Growth inhibition of human HT-29 cells assessed as cell growth at 10 uM by sulforhodamine B assay relative to control; values are per cent of control
HCT-15 = experiment: Growth inhibition of human HCT15 cells assessed as cell growth at 10 uM by sulforhodamine B assay relative to control; values are per cent of control
MOLT-4 = experiment: Growth inhibition of human MOLT4 cells assessed as cell growth at 10 uM by sulforhodamine B assay relative to control; values are per cent of control
OVCAR-8 = experiment: Growth inhibition of human OVCAR8 cells assessed as cell growth at 10 uM by sulforhodamine B assay relative to control; values are per cent of control
OVCAR-3 = experiment: Growth inhibition of human OVCAR3 cells assessed as cell growth at 10 uM by sulforhodamine B assay relative to control; values are per cent of control
HCT-116 [6] = experiment: Growth inhibition of human HCT116 cells assessed as cell growth at 10 uM by sulforhodamine B assay relative to control; values are per cent of control
[7] = Growth inhibition of human UACC257 cells assessed as cell growth at 10 uM by sulforhodamine B assay relative to control; values are per cent of control; conditions: UACC-257
[8] = Growth inhibition of human HCC2998 cells assessed as cell growth at 10 uM by sulforhodamine B assay relative to control; values are per cent of control; conditions: HCC 2998
SK-MEL-5 = experiment: Growth inhibition of human SK-MEL-5 cells assessed as cell growth at 10 uM by sulforhodamine B assay relative to control; values are per cent of control
SK-MEL-2 = experiment: Growth inhibition of human SK-MEL-2 cells assessed as cell growth at 10 uM by sulforhodamine B assay relative to control; values are per cent of control
RPMI-8226 = experiment: Growth inhibition of human RPMI8226 cells assessed as cell growth at 10 uM by sulforhodamine B assay relative to control; values are per cent of control
A549 = experiment: Growth inhibition of human A549/ATCC cells assessed as cell growth at 10 uM by sulforhodamine B assay relative to control; values are per cent of control
MDA-MB-231 = experiment: Growth inhibition of human MDA-MB-231 cells assessed as cell growth at 10 uM by sulforhodamine B assay relative to control; values are per cent of control
MDA-MB-435 = experiment: Growth inhibition of human MDA-MB-435 cells assessed as cell growth at 10 uM by sulforhodamine B assay relative to control; values are per cent of control
[9] = read-out: LC50 (the source's name)

For COc1ccc(C(=O)/C=C/c2ccc(/C=C/c3cc(OC)c(OC)c(OC)c3)cc2)cc1, the GI50 ([1]; UO-31) was 4.64 µM, the TGI ([1]; UO-31) was > 100 µM and the CC50 ([1]; UO-31, read-out: LC50 (the source's name)) was > 100 µM. The GI50 (A498) was 18.6 µM, the TGI (A498) was > 100 µM and the CC50 (A498; [9]) was > 100 µM. The GI50 [2] was 5.46 µM, the TGI [2] was > 100 µM and the CC50 [2, 9] was > 100 µM. The GI50 (SW-620) was 4.5 µM, the TGI (SW-620) was > 100 µM and the CC50 (SW-620; [9]) was > 100 µM. The GI50 (KM12) was 3.75 µM, the TGI (KM12) was 83.9 µM and the CC50 (KM12; [9]) was > 100 µM. For the same molecule, the GI50 (HCT-116 [3]) was 2.62 µM, the TGI (HCT-116 [3]) was > 100 µM and the CC50 (HCT-116 [3]; [9]) was > 100 µM. For the same molecule, the GI50 (NCI-H460) was 8.65 µM, the TGI (NCI-H460) was > 100 µM and the CC50 (NCI-H460; [9]) was > 100 µM. The growth, % of control at 10 µM (PC-3) was 52.2%, the growth, % of control at 10 µM (T47D) was 43.4% and the growth, % of control at 10 µM [4] was 40.5%. The growth, % of control at 10 µM (ACHN) was 68.1%, the growth, % of control at 10 µM (U-251) was 36.3% and the growth, % of control at 10 µM (SN12C) was 56.7%. For the same molecule, the growth, % of control at 10 µM (786-0) was 67.8%, the growth, % of control at 10 µM (SK-OV-3) was 102% and the growth, % of control at 10 µM (SNB-75) was 59.8%. The growth, % of control at 10 µM [5] was 86.3%, the growth, % of control at 10 µM (SF-295) was 57.9% and the growth, % of control at 10 µM (SF-268) was 66.2%. It also gave a growth, % of control at 10 µM (HT-29) of 36.2%, a growth, % of control at 10 µM (HCT-15) of 33.6% and a growth, % of control at 10 µM (MOLT-4) of 9.62%. The growth, % of control at 10 µM (OVCAR-8) was 28.4%, the growth, % of control at 10 µM (OVCAR-3) was 41.4% and the growth, % of control at 10 µM (HCT-116 [6]) was 17.5%. The growth, % of control at 10 µM [7] was 72.5%, the growth, % of control at 10 µM [8] was 94.1% and the growth, % of control at 10 µM (SK-MEL-5) was 62%. It also gave a growth, % of control at 10 µM (SK-MEL-2) of 65.1%, a growth, % of control at 10 µM (RPMI-8226) of -0.63% and a growth, % of control at 10 µM (A549) of 36.4%. The growth, % of control at 10 µM (MDA-MB-231) was 76.8% and the growth, % of control at 10 µM (MDA-MB-435) was 41%.

With COc1ccc(C(=O)/C=C/c2ccc(/C=C/c3ccc(Cl)cc3)cc2)cc1 the growth, % of control at 10 µM (PC-3) was 98.7%, the growth, % of control at 10 µM (T47D) was 81.6% and the growth, % of control at 10 µM [4] was 102%. It also gave a growth, % of control at 10 µM (ACHN) of 94.6%, a growth, % of control at 10 µM (U-251) of 101% and a growth, % of control at 10 µM (SN12C) of 97.4%. It also gave a growth, % of control at 10 µM (786-0) of 94%, a growth, % of control at 10 µM (SK-OV-3) of 99.3% and a growth, % of control at 10 µM (SNB-75) of 97.2%. For the same molecule, the growth, % of control at 10 µM [5] was 99.9%, the growth, % of control at 10 µM (SF-295) was 96.5% and the growth, % of control at 10 µM (SF-268) was 96.5%. It also gave a growth, % of control at 10 µM (HT-29) of 104%, a growth, % of control at 10 µM (HCT-15) of 90.1% and a growth, % of control at 10 µM (MOLT-4) of 92.6%. The growth, % of control at 10 µM (OVCAR-8) was 104%, the growth, % of control at 10 µM (OVCAR-3) was 101% and the growth, % of control at 10 µM (HCT-116 [6]) was 97.5%. For the same molecule, the growth, % of control at 10 µM [7] was 100%, the growth, % of control at 10 µM [8] was 105% and the growth, % of control at 10 µM (SK-MEL-5) was 106%. For the same molecule, the growth, % of control at 10 µM (SK-MEL-2) was 106%, the growth, % of control at 10 µM (RPMI-8226) was 102% and the growth, % of control at 10 µM (A549) was 100%. For the same molecule, the growth, % of control at 10 µM (MDA-MB-231) was 103% and the growth, % of control at 10 µM (MDA-MB-435) was 103%.

COc1ccc(C(=O)/C=C/c2ccc(/C=C/c3ccc(F)cc3)cc2)cc1 showed a growth, % of control at 10 µM (PC-3) of 106%, a growth, % of control at 10 µM (T47D) of 93.8% and a growth, % of control at 10 µM [4] of 94.4%. The growth, % of control at 10 µM (ACHN) was 102%, the growth, % of control at 10 µM (U-251) was 100% and the growth, % of control at 10 µM (SN12C) was 102%. The growth, % of control at 10 µM (786-0) was 95.3%, the growth, % of control at 10 µM (SK-OV-3) was 99.1% and the growth, % of control at 10 µM (SNB-75) was 104%. The growth, % of control at 10 µM [5] was 108%, the growth, % of control at 10 µM (SF-295) was 94.9% and the growth, % of control at 10 µM (SF-268) was 113%. For the same molecule, the growth, % of control at 10 µM (HT-29) was 104%, the growth, % of control at 10 µM (HCT-15) was 102% and the growth, % of control at 10 µM (MOLT-4) was 96.2%. It also gave a growth, % of control at 10 µM (OVCAR-8) of 106%, a growth, % of control at 10 µM (OVCAR-3) of 112% and a growth, % of control at 10 µM (HCT-116 [6]) of 95.8%. The growth, % of control at 10 µM [7] was 101%, the growth, % of control at 10 µM [8] was 94.1% and the growth, % of control at 10 µM (SK-MEL-5) was 104%. It also gave a growth, % of control at 10 µM (SK-MEL-2) of 96.2%, a growth, % of control at 10 µM (RPMI-8226) of 104% and a growth, % of control at 10 µM (A549) of 94.9%. For the same molecule, the growth, % of control at 10 µM (MDA-MB-231) was 116% and the growth, % of control at 10 µM (MDA-MB-435) was 98.9%.

COc1ccc(/C=C/c2ccc(/C=C/C(=O)c3ccc(Cl)cc3)cc2)cc1 showed a growth, % of control at 10 µM (PC-3) of 108%, a growth, % of control at 10 µM (T47D) of 83.4% and a growth, % of control at 10 µM [4] of 80.7%. For the same molecule, the growth, % of control at 10 µM (ACHN) was 110%, the growth, % of control at 10 µM (U-251) was 99.7% and the growth, % of control at 10 µM (SN12C) was 99.8%. The growth, % of control at 10 µM (786-0) was 91%, the growth, % of control at 10 µM (SK-OV-3) was 102% and the growth, % of control at 10 µM (SNB-75) was 100%. It also gave a growth, % of control at 10 µM [5] of 109%, a growth, % of control at 10 µM (SF-295) of 87% and a growth, % of control at 10 µM (SF-268) of 96.5%. It also gave a growth, % of control at 10 µM (HT-29) of 93%, a growth, % of control at 10 µM (HCT-15) of 101% and a growth, % of control at 10 µM (MOLT-4) of 92.5%. It also gave a growth, % of control at 10 µM (OVCAR-8) of 109%, a growth, % of control at 10 µM (OVCAR-3) of 101% and a growth, % of control at 10 µM (HCT-116 [6]) of 93.3%. The growth, % of control at 10 µM [7] was 101%, the growth, % of control at 10 µM [8] was 99.9% and the growth, % of control at 10 µM (SK-MEL-5) was 107%. For the same molecule, the growth, % of control at 10 µM (SK-MEL-2) was 101%, the growth, % of control at 10 µM (RPMI-8226) was 99.2% and the growth, % of control at 10 µM (A549) was 91.8%. It also gave a growth, % of control at 10 µM (MDA-MB-231) of 117% and a growth, % of control at 10 µM (MDA-MB-435) of 95.3%.

— ChEMBL document CHEMBL3132854, “Synthesis and anticancer activity evaluation of resveratrolchalcone conjugates” (2014)
